This note sets out measurements from US8129368B2, “5,6-dihydro-1H-pyridin-2-one compounds” (priority 2008, dated 2012).

The test system of the experiment is HCV Huh-luc/neo-ET replicon cells. The experiment in a line: Luciferase-Based HCV Replicon Assay (EC50 (1b)). The format is cell-based. As to conditions: Hepatitis C virus. The protocol:
Luciferase-Based HCV Replicon Assay Protocol (EC50 (1b))
The cell culture component of the assay is performed essentially as described by Bartenschlager et al., Hepatology 2002, 35, 694-703, wherein exponentially growing HCV Huh-luc/neo-ET replicon cells were seeded at 6×10^3 cells/well in 96 well assay plate. 24 hours later the cells were treated with various concentrations of compound or combination of compounds in triplicate using both fixed ratios and checkerboard matrices of test agents and cultured for 72 hours. The luciferase activity in the wells was determined using Bright-Glo reagent (Promega, Madison, Wis.) with a luminometer (Wallac 1420 Multilabel HTS Counter Victor 2). The background control was replicon cells treated with 100 nM BILN-2061, an inhibitor of the HCV protease. % Inhibition was determined for each compound concentration in relation to the negative (no compound) control to calculate the EC50(1b).
(In general: Replicon systems follow genome replication, usually without infectious particles.)

Setting [1] is: HCV Huh-luc/neo-ET replicon cells, 72 hours, luciferase activity, read-out: EC50 (1b).
Setting [2] is: HCV Huh-luc/neo-ET replicon cells, 72 hours, luciferase activity, read-out: EC50(1b) concentration.

Molecules are shown by their SMILES. Where two headings read alike, the source gives them in different places.

For the compound `CS(=O)(=O)Nc1ccc2c(c1)S(=O)(=O)NC(C1=C(O)[C@@H]3[C@H]4CC[C@H](C4)[C@@H]3N(Cc3cccc(F)c3)C1=O)=N2` [Example 21, N-{3-[(1R,2S,7R,8S)-3-(3-Fluoro-benzyl)-6-hydroxy-4-oxo-3-aza-tricyclo[6.2.1.0^2,7]undec-5-en-5-yl]-1,1-dioxo-1,2-dihydro-1λ^6-benzo[1,2,4]thiadiazin-7-yl}-methanesulfonamide], the EC50 is 5 to 25 nM under setting [1] and below 25 nM under setting [2].
On to `CS(=O)(=O)Nc1ccc2c(c1)S(=O)(=O)NC(C1=C(O)[C@@H]3[C@@H]4CC[C@@H](C4)[C@@H]3N(CC3(C(F)(F)F)CC3)C1=O)=N2` [Example 22, N-{3-[(1S,2S,7R,8R)-6-Hydroxy-4-oxo-3-(1-trifluoromethyl-cyclopropylmethyl)-3-aza-tricyclo[6.2.1.0^2,7]undec-5-en-5-yl]-1,1-dioxo-1,2-dihydro-1λ^6-benzo[1,2,4]thiadiazin-7-yl}-methanesulfonamide], for which the EC50 is 5 to 25 nM under setting [1] and below 25 nM under setting [2].
Take `CS(=O)(=O)Nc1ccc2c(c1)S(=O)(=O)NC(C1=C(O)[C@@H]3[C@@H]4CC[C@@H](C4)[C@@H]3N(Cc3ccc(F)c(F)c3)C1=O)=N2` [Example 23, N-{3-[(1S,2S,7R,8R)-3-(3,4-Difluoro-benzyl)-6-hydroxy-4-oxo-3-aza-tricyclo[6.2.1.0^2,7]undec-5-en-5-yl]-1,1-dioxo-1,2-dihydro-1λ^6-benzo[1,2,4]thiadiazin-7-yl}-methanesulfonamide]: the EC50 runs as follows: (Huh-luc/neo-ET, 72 h, read-out: EC50 (1b)) 5 to 25 nM; (Huh-luc/neo-ET, 72 h, read-out: EC50(1b) concentration) below 25 nM.
Turning to `CS(=O)(=O)Nc1ccc2c(c1)S(=O)(=O)NC(C1=C(O)[C@@H]3[C@H]4CC[C@H](C4)[C@@H]3N(Cc3ccc(F)c(F)c3F)C1=O)=N2` [Example 24, N-{3-[(1R,2S,7R,8S)-6-Hydroxy-4-oxo-3-(2,3,4-trifluoro-benzyl)-3-aza-tricyclo[6.2.1.0^2,7]undec-5-en-5-yl]-1,1-dioxo-1,2-dihydro-1λ^6-benzo[1,2,4]thiadiazin-7-yl}-methanesulfonamide], the EC50 is 5 to 25 nM under setting [1] and below 25 nM under setting [2].
As to `CS(=O)(=O)Nc1ccc2c(c1)S(=O)(=O)NC(C1=C(O)[C@@H]3[C@H]4CC[C@H](C4)[C@@H]3N(Cc3ccsc3)C1=O)=N2` [Example 25, N-{3-[(1R,2S,7R,8S)-6-Hydroxy-4-oxo-3-thiophen-3-ylmethyl-3-aza-tricyclo[6.2.1.0^2,7]undec-5-en-5-yl]-1,1-dioxo-1,2-dihydro-1λ^6-benzo[1,2,4]thiadiazin-7-yl}-methanesulfonamide], the EC50 runs as follows: under setting [1], 5 to 25 nM; under setting [2], below 25 nM.
Regarding `CS(=O)(=O)Nc1ccc2c(c1)S(=O)(=O)NC(C1=C(O)[C@@H]3C4CCC(CC4)[C@@H]3N(Cc3cc(F)c(F)cc3F)C1=O)=N2` [Example 26], the EC50 is, setting by setting: under setting [1], 5 to 25 nM; under setting [2], below 25 nM.
Consider `CS(=O)(=O)Nc1ccc2c(c1)S(=O)(=O)NC(C1=C(O)[C@@H]3[C@H]4CC[C@H](C4)[C@@H]3N(Cc3cccs3)C1=O)=N2` [Example 27, N-{3-[(1R,2S,7R,8S)-6-Hydroxy-4-oxo-3-thiophen-2-ylmethyl-3-aza-tricyclo[6.2.1.0^2,7]undec-5-en-5-yl]-1,1-dioxo-1,2-dihydro-1λ^6-benzo[1,2,4]thiadiazin-7-yl}-methanesulfonamide], for which the EC50 by setting is: under setting [1], 5 to 25 nM; under setting [2], below 25 nM.
The corresponding values for `CS(=O)(=O)Nc1ccc2c(c1)S(=O)(=O)NC(C1=C(O)[C@@H]3[C@H]4CC[C@H](C4)[C@@H]3N(CC3CCCCC3)C1=O)=N2` [Example 28] are 5 to 25 nM and below 25 nM.
The corresponding values for `Cc1ccccc1CN1C(=O)C(C2=Nc3ccc(NS(C)(=O)=O)cc3S(=O)(=O)N2)=C(O)[C@@H]2[C@@H]3CC[C@@H](C3)[C@@H]21` [Example 29, N-{3-[(1S,2S,7R,8R)-6-Hydroxy-3-(2-methyl-benzyl)-4-oxo-3-aza-tricyclo[6.2.1.0^2,7]undec-5-en-5-yl]-1,1-dioxo-1,2-dihydro-1λ^6-benzo[1,2,4]thiadiazin-7-yl}-methanesulfonamide] are 5 to 25 nM and below 25 nM.
The corresponding values for `CS(=O)(=O)Nc1ccc2c(c1)S(=O)(=O)NC(C1=C(O)[C@@H]3[C@@H]4CC[C@@H](C4)[C@@H]3N(Cc3cccc(F)c3)C1=O)=N2` [Example 30] are 5 to 25 nM and below 25 nM.
